The values that follow come from US10501435B2, “Substituted quinazoline compounds and uses thereof for modulating glucocerebrosidase activity” (Northwestern University, priority 2015, dated 2019).

Test [1] concerns the target T1, wild-type GCase (Homo sapiens (Human), UniProt P04062). Put plainly: GCase enzyme activity assay (4MU-β-Glc substrate, no taurocholate). It is filed as biochemical. On the procedure: In previous studies, high concentrations of taurocholate (4-10 mM) were used to improve the signal in GCase enzyme activity assays^16,27,28. […] Here we describe our modifications of the substituents on the quinazoline ring.
4-Methylumbelliferyl β-D-glucopyranoside (4MU-β-Glc), 4-methylumbelliferyl α-D-glucopyranoside, 4-methylumbelliferyl α-D-galactopyranoside, and buffer components were purchased from Sigma-Aldrich (St. Louis, Mo.). The recombinant wild-type GCase enzyme velaglucerase alfa (Vpriv®, Shire Human Genetic Therapies, Inc.), acid α-glucosidase enzyme alglucosidase alfa (Lumizyme®, Genzyme Corporation), α-galactosidase A enzyme agalsidase beta (Fabrazyme®, Genzyme Corporation) were used in activity assays. […] A solution of 1 M sodium hydroxide and 1 M glycine (pH 10) was used as the stop solution for all three enzyme activity assays.
GCase Enzyme Activity Assay. The compounds in DMSO solution (0.5 μL/well) were transferred to a black 96-well plate (the final titration started from 100 μM, a 12 or 24-point 2-fold dilution series). […] After 5 min of incubation at room temperature, the enzyme reaction was initiated by the addition of blue substrate (4MU-β-Glc) (33 μL/well). The final concentration of the blue substrate was 1.5 mM. The blue substrate reaction was terminated by the addition of 33 μL/well stop solution (1 M NaOH and 1 M glycine mixture, pH 10) after 30 min of incubation at 37° C. […] The selected compounds were further assayed under pH 5.0 and pH 7.0 to evaluate their selectivity under various pH conditions.

The target in test [2] is T1, wild-type GCase. Nature of the test: Fluorescent thermal shift assay. It is filed as binding. As to conditions: pH 5.0, 0.5 to 200 μM. The text has this: Compounds shown to act as pharmacological chaperones for GCase (or other lysosomal enzymes) also stabilize the enzyme against thermal denaturation. A fluorescent thermal shift assay was developed to evaluate the binding affinity of ligands with protein^30. […] The maximum thermal shift of these compounds corresponded to their inhibitory activity at pH 5.0.
Fluorescence Thermal Shift Analysis^31. A robotic pipeline in the High Throughput Analysis Laboratory (HTAL) was used for protein ligand screening by fluorescence thermal shift (FTS) analysis. The pipeline used a Mosquito robot (TTP Labtech) for protein dispensing and an Echo 550 (Labcyte) to add compounds. Thermal scanning coupled with fluorescence detection was performed on a real-time PCR machine CFX384 (Bio-Rad Laboratories). The assay was run in 384-well PCR plates, using 10 μL citric acid/K2HPO4 buffer (50 mM citric acid, 150 mM K2HPO4, pH 5.0) per well. The assay concentration for protein was 1 μM and that for Sypro Orange (Invitrogen) was 5×. Protein was premixed with Sypro Orange and dispensed to a plate first, and compounds were added. Final concentrations of compounds ranged from 0.5 to 200 μM. Then the plate was sealed with an optical seal, shaken, and centrifuged. The thermal scan was from 10 to 95° C. with a temperature ramp rate of 1.5° C./min. The fluorescence was recorded every 10 sec. Data analysis and report generation were performed using the in-house software excelFTS.

The target in test [3] is T2, N370S mutant GCase (Homo sapiens (Human), UniProt P04062, N370S). Nature of the test: GCase protein levels by Western blot in patient N370S fibroblasts. As to conditions: 3-day treatment, 0.2 μM and 2 μM. It is filed as cell-based. As to the method: (§1) N370S Cell Culture and Compound Treatment. The N370S fibroblast cell line was obtained from Coriell, GM00372, cultured in DMEM medium (Life Tech) including 1% v/v L-glutamine 200 mM (Life Tech), 1% v/v pen strep (Life Tech), 10% FBS (Life Tech) at 37° C. and 5% CO2 and treated with different compounds at 0.2 μM and 2 μM. After a 3-day treatment, cells were washed with inhibitor free media 3 times and fed with inhibitor free media for 1 day, followed by 1% Triton X-100 lysis buffer to lyse cells. Protein concentrations were measured with a Bradford kit (Thermo), and the GCase activity was determined at pH 5.5.
T2 sequence (P04062 40-536 N409S): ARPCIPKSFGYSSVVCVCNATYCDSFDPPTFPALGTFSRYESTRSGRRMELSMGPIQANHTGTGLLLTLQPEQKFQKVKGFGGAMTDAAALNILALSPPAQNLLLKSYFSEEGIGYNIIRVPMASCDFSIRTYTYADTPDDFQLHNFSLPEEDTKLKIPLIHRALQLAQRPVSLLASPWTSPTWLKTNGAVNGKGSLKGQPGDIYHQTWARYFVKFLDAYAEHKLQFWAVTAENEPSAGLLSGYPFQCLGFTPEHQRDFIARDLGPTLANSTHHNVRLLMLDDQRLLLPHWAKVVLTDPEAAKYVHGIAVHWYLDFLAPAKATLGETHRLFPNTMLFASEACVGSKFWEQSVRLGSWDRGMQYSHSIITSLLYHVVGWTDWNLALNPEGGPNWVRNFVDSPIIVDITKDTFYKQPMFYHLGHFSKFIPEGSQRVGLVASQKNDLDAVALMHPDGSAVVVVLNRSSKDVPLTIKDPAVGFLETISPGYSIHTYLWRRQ
Western Blot. Proteins were denatured in 20% SDS sample buffer at 100° C. for 10 min; 10% Bis-Tris gel (Life Tech) was used for gels; Trans-Blot Turbo PVDF kit (Bio-Rad) was used for membrane transfer, and Chemidoc MP system (Bio-Rad) was used to analyze the blots.
A general note: A western blot detects proteins with antibodies after separation by electrophoresis.

Test [4] concerns the target T2, N370S mutant GCase. Nature of the test: GCase activity assay in patient N370S fibroblasts. It is filed as cell-based. As to conditions: 3-day treatment, activity determined at pH 5.5. On the procedure: as §1
The next test deals with acid α-glucosidase (GAA) (Homo sapiens (Human), UniProt P10253). Nature of the test: Enzyme selectivity assay, acid α-glucosidase. It is filed as biochemical. As to conditions: compound treatments up to 100 μM, pH 4.8. An excerpt: (§2) 4-Methylumbelliferyl β-D-glucopyranoside (4MU-β-Glc), 4-methylumbelliferyl α-D-glucopyranoside, 4-methylumbelliferyl α-D-galactopyranoside, and buffer components were purchased from Sigma-Aldrich (St. Louis, Mo.). The recombinant wild-type GCase enzyme velaglucerase alfa (Vpriv®, Shire Human Genetic Therapies, Inc.), acid α-glucosidase enzyme alglucosidase alfa (Lumizyme®, Genzyme Corporation), α-galactosidase A enzyme agalsidase beta (Fabrazyme®, Genzyme Corporation) were used in activity assays. The GCase activity assay buffer was composed of 50 mM citric acid, 176 mM K2HPO4, and 0.01% Tween-20 at pH5.0, pH 5.9 and pH7.0. A solution of 1 M sodium hydroxide and 1 M glycine (pH 10) was used as the stop solution for all three enzyme activity assays.
(§3) Enzyme Selectivity Assays. The acid α-glucosidase and α-galactosidase A enzyme activity assay methods were similar to the GCase enzyme activity assay above with slight modifications. The buffer for the two enzyme assays consisted of 50 mM citric acid, 176 mM K2HPO4, and 0.01% Tween-20 at pH 4.8. The final enzyme concentrations for acid α-glucosidase and α-galactosidase A were 8 and 1 nM, respectively. The substrate concentrations for these related enzymes were at 0.16 and 0.4 mM, respectively.

A further test concerns the target α-galactosidase A (GLA) (Homo sapiens (Human), UniProt P06280). Put plainly: Enzyme selectivity assay, α-galactosidase A. It is filed as biochemical. The following applies: compound treatments up to 100 μM, pH 4.8.
Source text: as §2, §3

The target in the next test is Glucocerebrosidase (Homo sapiens (Human), UniProt P04062). Put plainly: Glucocerebrosidase activity assay with blue substrate (4MU-Glc). It is filed as biochemical. On the procedure:
The compounds in DMSO solution 0.5 μL/well were transferred to a black 96-well plate. The final titration was 24 nM to 50 μM, 12 concentrations, 2 times dilution. […] After 5 min of incubation at room temperature, the enzyme reaction was initiated by the addition of 33 μL/well blue substrate. Final concentrations of the blue substrate (4MU-Glc) was 1.5 mM. The blue substrate reaction was terminated by the addition of 33 μL/well stop solution (1 M NaOH and 1 M glycine mixture, pH 10) after 30 min of incubation at 37° C. The fluorescence was then measured in the Biotek Synergy H1 multi-mode plate reader with Ex=365 nm and Em=440 nm.
Additional compounds were prepared and tested according to the procedures provided in the examples above.
Additional substituted quinazoline compounds were prepared and tested according to the procedures provided in the examples above.

Where [5] appears, read: cells marked activator, read-out: Activity AC50 or IC50 (μM unless nM indicated): AC50, activator.
The mark [6] stands for this setting: cells marked (act), read-out: IC50 or AC50 (μM): AC50 (act).

A word on the IC50: it is the midpoint of a concentration-inhibition curve. A lower IC50 goes with higher potency. In general, AC50 refers to the midpoint of the concentration-response curve, whichever way the signal moves.

“Also recorded” adds a separate entry of the source. Where two headings read alike, the source gives them in different places.

T1 sequence (P04062 40-536): as the sequence (P04062 40-536 N409S) above, with S370N counted along it
Chain of Glucocerebrosidase (P04062 40-536): as the sequence (P04062 40-536 N409S) above, with S370N counted along it
Chain of α-galactosidase A (GLA) (P06280 32-429): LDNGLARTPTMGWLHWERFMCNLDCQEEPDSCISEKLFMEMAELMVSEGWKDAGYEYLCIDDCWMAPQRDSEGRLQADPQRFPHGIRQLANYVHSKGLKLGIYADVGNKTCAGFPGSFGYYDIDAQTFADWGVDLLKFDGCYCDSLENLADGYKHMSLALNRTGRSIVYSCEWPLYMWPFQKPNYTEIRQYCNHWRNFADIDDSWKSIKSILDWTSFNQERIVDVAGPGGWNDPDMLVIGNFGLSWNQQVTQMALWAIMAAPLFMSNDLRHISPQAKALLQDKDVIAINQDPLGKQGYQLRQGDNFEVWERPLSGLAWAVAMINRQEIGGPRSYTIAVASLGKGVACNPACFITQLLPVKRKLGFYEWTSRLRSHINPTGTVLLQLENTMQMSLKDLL

In the case of `c1cncc(-c2nc(N[C@@H]3CCc4ccccc4C3)c3ccccc3n2)c1` [Compound 9b], the “decrease of inhibitory activity at pH 5.0 compared to pH 5.9” value on wild-type GCase [1] (pH 5.0 vs pH 5.9) worked out at 3 fold. Moreover, the “stabilization of wild-type GCase / change of GCase melting point” value on wild-type GCase [2] is “stabilize wild-type GCase in a dose-dependent manner; also recorded: increased the GCase melting point in a dose-dependent manner”.
`OC[C@H]1CNC[C@@H](O)[C@@H]1O` [IFG, Isofagomine, reference compound]: the “stabilization of wild-type GCase / change of GCase melting point” value at wild-type GCase [2] is “stabilize wild-type GCase in a dose-dependent manner”. The “concentration of GCase (protein level, Western blot)” value (“concentration of GCase” for short) at N370S mutant GCase [3] was “did not have an effect”. Moreover, at N370S mutant GCase [4], the “GCase activity in patient cells” value is given as “had no effect”.
Turning to `c1cncc(-c2nc(NC3CCc4ccccc43)c3ccccc3n2)c1` (stereo not drawn) [Compound 9e], at wild-type GCase [1], the “inhibitory activity against GCase (in words)” value is given as “low micromolar range”.
The molecule `c1cncc(-c2nc(NC3COc4ccccc4C3)c3ccccc3n2)c1` (stereo not drawn) [Compound 9f] gave an IC50 on wild-type GCase [1] (Table 4, pH 5.9, mean ± SD, triplicate) of 35 ± 3 nM.
For `c1csc(-c2nc(NC3Cc4ccccc4C3)c3ccccc3n2)c1` [Compound 11f, N-(2,3-dihydro-1H-inden-2-yl)-2-(thiophen-2-yl)quinazolin-4-amine], the “change of inhibitory activity at pH 5.0 and pH 7.0 compared to pH 5.9” value at wild-type GCase [1] (both pH conditions) was “only dropped slightly”. The “stabilization of wild-type GCase / change of GCase melting point” value on wild-type GCase [2] is on record as “stabilize wild-type GCase in a dose-dependent manner; also recorded: increased the GCase melting point in a dose-dependent manner”. Moreover, on acid α-glucosidase (GAA), the “acid α-glucosidase (GAA) activity” value is “not significantly changed”. Further, on α-galactosidase A (GLA), the “α-galactosidase A (GLA) activity” value is “not significantly changed”. Moreover, the “concentration of GCase” value at N370S mutant GCase [3] was “significantly increased”.
For `c1ccc(-c2nc(NC3Cc4ccccc4C3)c3ccccc3n2)cc1` [Compound 11d, N-(2,3-dihydro-1H-inden-2-yl)-2-phenylquinazolin-4-amine], the “stabilization of wild-type GCase / change of GCase melting point” value at wild-type GCase [2] is “stabilize wild-type GCase in a dose-dependent manner; also recorded: increased the GCase melting point in a dose-dependent manner”. Moreover, on acid α-glucosidase (GAA), the “acid α-glucosidase (GAA) activity” value is “not significantly changed”. The “α-galactosidase A (GLA) activity” value at α-galactosidase A (GLA) is “not significantly changed”. For the same molecule, the “concentration of GCase” value at N370S mutant GCase [3] is reported as “significantly increased”.
Regarding `c1cncc(-c2nc(NC3CCCc4ccccc43)c3ccccc3n2)c1` (stereo not drawn) [Compound 9d], the “inhibitory activity against GCase (in words)” value at wild-type GCase [1] was “low micromolar range”.
In the case of `c1ccc(Nc2nc(-c3cccnc3)nc3ccccc23)cc1` [Compound 8a], the “inhibitory activity against GCase (in words)” value against wild-type GCase [1] is reported as “lost activity”. In addition, the “stabilization of wild-type GCase / change of GCase melting point” value at wild-type GCase [2] was “did not change the melting points significantly”.
On to `c1cncc(-c2nc(NC3CCc4ccccc4C3)c3ccccc3n2)c1` (single isomer, unassigned) [Compound 9a], for which, on wild-type GCase [2], the “stabilization of wild-type GCase / change of GCase melting point” value is on record as “stabilize wild-type GCase in a dose-dependent manner; also recorded: increased the GCase melting point in a dose-dependent manner”. For the same molecule, the “acid α-glucosidase (GAA) activity” value on acid α-glucosidase (GAA) was “not significantly changed”. Also, the “α-galactosidase A (GLA) activity” value at α-galactosidase A (GLA) is listed as “not significantly changed”.
Consider `Cc1ccc(OCCN(C)c2nc(-c3cccnc3)nc3ccccc23)cc1` [compound 136], for which, at Glucocerebrosidase (setting [5]), the concentration at half-maximal activity (AC50) turned out to be 3.55 µM.
For `CN1CCN(c2ccc(CNc3nc(-c4cccnc4)nc4ccccc34)cc2)CC1` [compound 36], the AC50 at Glucocerebrosidase (setting [6]) is 39.8 µM.
Regarding `Nc1nc(-c2cccnc2)nc2ccccc12` [compound 35], the “IC50 or AC50 (μM): AC50 (act)” value at Glucocerebrosidase (cells marked (act)) was “Weak (act)”.
Regarding `c1cncc(-c2nc(N3C4CCC3CC4)c3ccccc3n2)c1` [compound 64], the concentration at half-maximal activity (AC50) on Glucocerebrosidase (setting [6]) worked out at 2.24 µM.
On the same count and under the same terms, in the case of `CN(CCC1COc2ccccc2O1)c1nc(-c2cccnc2)nc2ccccc12` (stereo not drawn) [compound 32] it was 3.16 µM.
As to `CN(CCCOc1ccccc1)c1nc(-c2cccnc2)nc2ccccc12` [compound 137], the AC50 at Glucocerebrosidase (setting [5]) was found to be 5.01 µM.
With `c1ccc(CC2CCCCN2c2nc(-c3cccnc3)nc3ccccc23)cc1` (stereo not drawn) [compound 83], the AC50 at Glucocerebrosidase (setting [6]) was found to be 2.24 µM.
Turning to `CN(CCOc1ccccc1)c1nc(-c2ccncc2)nc2ccccc12` [compound 130], the AC50 on Glucocerebrosidase (setting [5]) came to 3.98 µM.
Turning to `COc1ccccc1CN(C)c1nc(-c2cccnc2)nc2ccccc12` [compound 16], on Glucocerebrosidase (setting [6]), the AC50 was found to be 3.13 µM.
`CN(Cc1scc2c1OCCO2)c1nc(-c2cccnc2)nc2ccccc12` [compound 24]: on Glucocerebrosidase (setting [6]), the AC50 amounted to 2 µM.
On to `CN(CCOc1ccccc1)c1nc(Cl)nc2ccccc12` [compound 124], for which the AC50 at Glucocerebrosidase (setting [5]) worked out at 10 µM.
